Assay results published in patent US20200188388A1, “METHODS AND COMPOSITIONS FOR PO[…] DRUGS AND REDUCING THEIR SIDE EFFECTS” (RVX THERAPEUTICS LTD., priority 2016, published 2020).

How the values were obtained:
Wistar rats [1] = assay: Rotenone-induced PSP: severe ataxia, limb dystonia and lethality; assay type: in vivo, rat; conditions: for Severe ataxia sustained dystonic postures and lethality (% of group): ataxia and limb dystonia ++-+++; for [lethality] (% of group): value in brackets
Protocol: The neuro-protective effect in the experimental groups of rats with rotenone-induced PSP was evaluated due the elimination of ataxia, limb dystonia and mortality caused by cerebellar neurotoxic action of rotenone (J. Neurochem., 2005, Vol. 95(4):930-9).
Ataxia and limb dystonia is typical incoordination neurotoxic effect of rotenone manifested in uncoordinated movements and hyper-locomotion, replaced by hypokinesia and stereotypes, and in severe cases a complete violation of antigravity reflexes, falling on its side dystonic posture and akinesia. Assessment of the severity of ataxia and limb dystonia in scores was performed using the following scale: (+) uncoordinated movement, hyperkinesia; (++) significant incoordination, hypokinesia, stereotypes, falling on its side; frequent spontaneous dystonic postures (+++) complete violation of antigravity reflexes, akinesia, sustained dystonic posture (J. Neurosci., 2014, 27; 34(35):11723-32)
Ataxia and limb dystonia registration was performed twice daily, 30 minutes before administration of rotenone and 180 minutes after administration of rotenone. For each experimental group on a daily basis, throughout the whole period of observation number of rats with severe ataxia and limb dystonia (++−+++) and mortality in % of the total number of rats in group was determined. The neuro-protective effect of therapy (effects on rate of ataxia, limb dystonia and lethality) in rats with PSP was determined at days 12 and 19 of the experiment as reducing the number of rats with severe ataxia limb dystonia and mortality in % compared to control. Side hyperkinetic effects were evaluated in the “open field” test. In this test the locomotive activity in rats is determined. […] Registration of horizontal and vertical locomotive activity in OF assay was performed on the 10th and 18th day of the experiment, within 40 minutes after administration of the substance and 5 minutes before administration of rotenone. Side hyperkinetic effects was evaluated by the number of rats with a significant (at least 50% compared with the first day of the experiment) increase in horizontal and vertical activity (hyperkinesia) as a % of the total number of rats in group.
The neuro-protective effect in the experimental groups of rats with rotenone-induced PSP was evaluated due the elimination of ataxia and mortality caused by neurotoxic action of rotenone. Ataxia is typical incoordination neurotoxic effect of rotenone manifested in uncoordinated movements and hyper-locomotion, replaced by hypokinesia and stereotypes, and in severe cases a complete violation of antigravity reflexes, falling on its side and akinesia. Assessment of the severity of ataxia in scores was performed using the following scale: (+) uncoordinated movement, hyperkinesia; (++) significant incoordination, hypokinesia, stereotypes, falling on its side; (+++) complete violation of antigravity reflexes, akinesia. Ataxia registration was performed twice daily, 30 minutes before administration of rotenone and 180 minutes after administration of rotenone. For each experimental group on a daily basis, throughout the whole period of observation number of rats with severe ataxia (++−+++) and mortality in % of the total number of rats in group was determined. The neuro-protective effect of therapy (effects on rate of ataxia and lethality) in rats with PSP was determined at days 12 and 19 of the experiment as reducing the number of rats with severe ataxia and mortality in % compared to control. Side hyperkinetic effects were evaluated in the “open field” test. In this test the locomotive activity in rats is determined. […] Registration of horizontal and vertical locomotive activity in OF assay was performed on the 10th and 18th day of the experiment, within 40 minutes after administration of the substance and 5 minutes before administration of rotenone.

Wistar rats [2] = assay: Open field test, hypokinetic (sedative) or hyperkinetic action (analgesia examples)
Protocol: (§1) To evaluate the hypokinetic (sedative) or hyperkinetic action effects of tested drugs an “open field” (OF) test was applied. In the OF test, the locomotive activity of rats is determined. Animals were placed in the center of square of the illuminated field (1 meter×1 meter) for 3 minutes and the mobility time was recorded in seconds (horizontal activity). […] To quantify the locomotive activity for each dose of test drug(s) an average horizontal activity was calculated.
as §1
To evaluate the hypokinetic (sedative) effects of drugs, “open field” (OF) test was applied. In the OF test, the locomotive activity of rats is determined. Animals were placed in the center of square of the illuminated field (1 meter×1 meter) for 3 minutes and the mobility time was recorded in seconds (horizontal activity). […] To quantify the locomotive activity for each dose of test drug(s), an average horizontal activity was calculated.
Tail-Flick and Open Field Tests were Conducted as Detailed Above.
as §1

male Wistar rats = assay: Opioid hyperalgesia in tail and paw withdrawal tests (% rats)

N[C@@H](Cc1ccc(O)c(O)c1)C(=O)O [Levodopa, L-3,4-dihydroxyphenylalanine]
Severe ataxia sustained dystonic postures and lethality (% of group) (Wistar rats [1]; Day 12, levodopa 10 mg/kg oral): 14 % of group
[lethality] (% of group) (Wistar rats [1]; Day 12, levodopa 10 mg/kg oral): 0 % of group
Severe ataxia sustained dystonic postures and lethality (% of group) (Wistar rats [1]; Day 12, levodopa 20 mg/kg oral): 0[0] % of group
[lethality] (% of group) (Wistar rats [1]; Day 12, levodopa 20 mg/kg oral): 0[0] % of group
Severe ataxia sustained dystonic postures and lethality (% of group) (Wistar rats [1]; Day 19, levodopa 10 mg/kg oral): 42 % of group
[lethality] (% of group) (Wistar rats [1]; Day 19, levodopa 10 mg/kg oral): 14 % of group
Severe ataxia sustained dystonic postures and lethality (% of group) (Wistar rats [1]; Day 19, levodopa 20 mg/kg oral): 24 % of group
[lethality] (% of group) (Wistar rats [1]; Day 19, levodopa 20 mg/kg oral): 0 % of group

CC12CC3CC(C)(C1)CC(N)(C3)C2 [Memantine, memantine]
Sedation (Wistar rats [2]; I.M., doses by row as E3): 0 % of Rats
Hyperkinesia or sedation (Wistar rats [2]; unmarked cells, doses as E6): 0 % rats
Hyperkinesia or sedataion (Wistar rats [2]; unmarked cells, doses as E12): 0 % rats
Hyperkinesia (Wistar rats [2]; unmarked cells, doses as E48): 0 % rats
Hyperkinesia (Wistar rats [2]; unmarked cells, doses as E54): 0 % rats
Severe ataxia sustained dystonic postures and lethality (% of group) (Wistar rats [1]; Day 12, memantine 5 mg/kg oral): 0 % of group
[lethality] (% of group) (Wistar rats [1]; Day 12, memantine 5 mg/kg oral): 17 % of group
Severe ataxia sustained dystonic postures and lethality (% of group) (Wistar rats [1]; Day 19, memantine 5 mg/kg oral): 17[17] % of group
[lethality] (% of group) (Wistar rats [1]; Day 19, memantine 5 mg/kg oral): 17[17] % of group
Hyperalgesia (male Wistar rats; doses as E6): 0 % rats
Hyperalgesia (male Wistar rats; doses as E12): 0 % rats
Hyperalgesia (male Wistar rats; doses as E48): 0 % rats
Hyperalgesia (male Wistar rats; doses as E54): 0 % rats
